Measured values reported in ChEMBL document CHEMBL1135497, “Identification of potent and novel alpha4beta1 antagonists using in silico screening” (J Med Chem, 2002).

Target: Integrin alpha-4/beta-1 (Homo sapiens, UniProt P05556+P13612)
Experiment: Inhibition of Very late antigen 4 (VLA-4) and VCAM-Ig fusion protein interaction
Type: protein-complex assay

Integrin alpha-4/beta-1, sequence (P05556 whole entry, the tested form may be a part): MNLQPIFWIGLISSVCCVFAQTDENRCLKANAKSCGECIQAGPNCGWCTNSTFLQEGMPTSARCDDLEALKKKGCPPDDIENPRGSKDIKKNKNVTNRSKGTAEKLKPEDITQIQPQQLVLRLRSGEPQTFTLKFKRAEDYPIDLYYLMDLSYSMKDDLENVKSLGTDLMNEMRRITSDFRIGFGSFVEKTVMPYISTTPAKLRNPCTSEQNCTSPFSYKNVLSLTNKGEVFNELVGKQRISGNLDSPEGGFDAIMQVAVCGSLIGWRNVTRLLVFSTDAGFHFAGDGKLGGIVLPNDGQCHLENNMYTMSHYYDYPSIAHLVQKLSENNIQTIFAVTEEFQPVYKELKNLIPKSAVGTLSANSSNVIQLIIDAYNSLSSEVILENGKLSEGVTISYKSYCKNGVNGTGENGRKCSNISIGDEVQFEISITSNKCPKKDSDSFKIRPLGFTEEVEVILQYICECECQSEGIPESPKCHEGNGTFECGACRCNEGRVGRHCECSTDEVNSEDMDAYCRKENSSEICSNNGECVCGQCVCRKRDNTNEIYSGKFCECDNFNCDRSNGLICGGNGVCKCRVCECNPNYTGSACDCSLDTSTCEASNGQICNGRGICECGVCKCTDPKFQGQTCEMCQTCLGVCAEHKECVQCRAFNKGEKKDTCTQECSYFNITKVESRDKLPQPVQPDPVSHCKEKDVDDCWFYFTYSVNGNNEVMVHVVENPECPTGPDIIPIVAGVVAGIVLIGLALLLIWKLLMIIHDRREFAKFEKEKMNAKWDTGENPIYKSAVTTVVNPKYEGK
Integrin alpha-4/beta-1, sequence (P13612 whole entry, the tested form may be a part): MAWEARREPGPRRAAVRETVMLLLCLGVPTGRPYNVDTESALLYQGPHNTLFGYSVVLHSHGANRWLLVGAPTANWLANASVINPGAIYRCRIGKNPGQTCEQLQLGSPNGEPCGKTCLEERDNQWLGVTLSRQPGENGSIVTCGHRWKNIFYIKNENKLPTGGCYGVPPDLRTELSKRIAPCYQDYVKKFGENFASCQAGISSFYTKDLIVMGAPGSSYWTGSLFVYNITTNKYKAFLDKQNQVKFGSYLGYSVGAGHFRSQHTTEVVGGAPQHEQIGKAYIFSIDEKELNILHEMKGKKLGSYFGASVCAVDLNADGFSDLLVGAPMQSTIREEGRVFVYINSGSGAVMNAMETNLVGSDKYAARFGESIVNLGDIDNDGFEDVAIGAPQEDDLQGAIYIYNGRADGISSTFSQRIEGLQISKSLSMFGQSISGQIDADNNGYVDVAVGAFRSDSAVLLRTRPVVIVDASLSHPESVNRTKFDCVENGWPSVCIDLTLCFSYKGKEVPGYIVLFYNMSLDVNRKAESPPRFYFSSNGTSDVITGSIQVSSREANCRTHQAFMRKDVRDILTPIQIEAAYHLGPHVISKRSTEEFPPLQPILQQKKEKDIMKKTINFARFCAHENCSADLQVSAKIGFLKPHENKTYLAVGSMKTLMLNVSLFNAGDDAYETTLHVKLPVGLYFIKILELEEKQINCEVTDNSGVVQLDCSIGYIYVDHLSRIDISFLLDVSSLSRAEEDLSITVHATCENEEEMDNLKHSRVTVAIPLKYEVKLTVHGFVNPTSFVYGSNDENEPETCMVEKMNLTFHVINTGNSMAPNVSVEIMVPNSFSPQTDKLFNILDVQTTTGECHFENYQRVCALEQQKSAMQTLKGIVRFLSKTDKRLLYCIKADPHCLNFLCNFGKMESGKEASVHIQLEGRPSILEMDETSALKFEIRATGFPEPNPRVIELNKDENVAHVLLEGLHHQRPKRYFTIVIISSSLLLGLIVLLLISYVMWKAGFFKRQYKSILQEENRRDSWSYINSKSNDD

| IC50 [nM] | Compound |
| --- | --- |
| 20000 | C=C(S/C(=N\C(=O)Cc1ccc(NC(=O)Nc2ccccc2C)cc1)NCCC(=O)O)c1ccccc1 |
| 58 | CC(=O)NC(Cc1ccc(NC(=O)Cc2ccc(NC(=O)Nc3ccccc3C)cc2)cc1)C(=O)O (configuration not stated) |
| 1.3 | Cc1ccccc1NC(=O)Nc1ccc(CC(=O)Nc2ccc(C(C)CC(=O)O)cc2)cc1 (configuration not stated) |
| 2300 | Cc1ccccc1NC(=O)Nc1ccc(CC(=O)Nc2nnc(SCC(=O)O)s2)cc1 |
| 67 | Cc1ccccc1NC(=O)Nc1ccc(CC(=O)Nc2cccc(NC(=O)NCC(=O)O)c2)cc1 |
| 11400 | Cc1ccccc1NC(=O)Nc1ccc(CC(=O)Nc2cccc(CCC(=O)O)c2)cc1 |
| 3000 | Cc1ccccc1NC(=O)Nc1ccc(CC(=O)Nc2cn(CCC(=O)O)c(C)n2)cc1 |
| 1200 | Cc1ccccc1NC(=O)Nc1ccc(CC(=O)Nc2cccc(C(=O)NCC(=O)O)c2)cc1 |
| 800 | Cc1ccccc1NC(=O)Nc1ccc(CC(=O)Nc2ccc3cnn(C(=O)NCC(=O)O)c3c2)cc1 |
| 2500 | Cc1ccccc1NC(=O)Nc1ccc(CC(=O)Nc2cccc(C(C)CC(=O)O)c2)cc1 (configuration not stated) |
| 2000 | Cc1ccccc1NC(=O)Nc1ccc(CC(=O)Nc2cccc(C(O)CC(=O)O)c2)cc1 (configuration not stated) |
| 15000 | Cc1ccccc1NC(=O)Nc1ccc(CC(=O)Nc2nc(CC(=O)O)cs2)cc1 |
